Assay [1] concerns the target Alpha-1D adrenergic receptor (Homo sapiens) (UniProt P25100). The note with it: at 10 µM.
For assay [2], the target named is T1, Alpha-1B adrenergic receptor (Homo sapiens, UniProt P35368).
T1 sequence (P35368 whole entry): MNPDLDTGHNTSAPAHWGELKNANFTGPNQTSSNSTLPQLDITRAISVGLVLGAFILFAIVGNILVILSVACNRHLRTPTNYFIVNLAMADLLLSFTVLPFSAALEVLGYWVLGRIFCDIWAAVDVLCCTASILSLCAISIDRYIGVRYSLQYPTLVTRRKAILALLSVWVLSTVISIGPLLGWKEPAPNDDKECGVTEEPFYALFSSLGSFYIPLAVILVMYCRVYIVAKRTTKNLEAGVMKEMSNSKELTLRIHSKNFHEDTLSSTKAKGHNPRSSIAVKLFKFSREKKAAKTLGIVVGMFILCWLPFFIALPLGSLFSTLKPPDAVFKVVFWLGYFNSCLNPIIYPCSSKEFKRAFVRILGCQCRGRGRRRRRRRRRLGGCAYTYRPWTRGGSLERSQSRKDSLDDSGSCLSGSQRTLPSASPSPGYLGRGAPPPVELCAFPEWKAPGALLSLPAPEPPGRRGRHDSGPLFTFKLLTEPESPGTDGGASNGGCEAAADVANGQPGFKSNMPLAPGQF
Kind of assay: Selectivity interaction (Binding assay) EUB0000341aCl ADRA1B.

Assay [3] concerns the target NT-3 growth factor receptor (Homo sapiens, UniProt Q16288). The assay can be described thus: Selectivity interaction (KinomeScan (DiscoverX)) EUB0000341aCl NTRK3. The note with it: at 1 µM.
The target in assay [4] is Dual specificity tyrosine-phosphorylation-regulated kinase 1B (Homo sapiens, UniProt Q9Y463). Kind of assay: Selectivity interaction (KinomeScan (DiscoverX)) EUB0000341aCl DYRK1B. The note with it: at 1 µM.
Assay [5] addresses T2, Alpha-1A adrenergic receptor (Homo sapiens) (UniProt P35348).
T2 sequence (whole entry): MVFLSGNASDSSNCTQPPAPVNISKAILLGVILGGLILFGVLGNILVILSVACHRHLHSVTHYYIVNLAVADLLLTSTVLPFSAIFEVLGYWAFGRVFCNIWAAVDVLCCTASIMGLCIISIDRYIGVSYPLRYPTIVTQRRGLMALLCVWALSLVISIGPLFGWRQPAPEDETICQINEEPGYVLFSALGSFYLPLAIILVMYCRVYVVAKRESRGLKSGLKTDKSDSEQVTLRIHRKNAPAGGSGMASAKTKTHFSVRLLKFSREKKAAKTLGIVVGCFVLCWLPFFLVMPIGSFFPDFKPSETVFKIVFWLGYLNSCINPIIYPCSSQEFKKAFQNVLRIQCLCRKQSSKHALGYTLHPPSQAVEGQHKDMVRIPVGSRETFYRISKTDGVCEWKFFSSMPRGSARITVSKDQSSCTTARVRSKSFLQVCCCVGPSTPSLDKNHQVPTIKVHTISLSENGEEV
The note with it: at 10 µM.

The target of assay [6] is T3, Alpha-1A adrenergic receptor (Homo sapiens, UniProt P35348).
T3 sequence (P35348 whole entry): T2 sequence (whole entry)
The assay can be described thus: Selectivity interaction (Binding assay) EUB0000341aCl ADRA1A.

Assay [7] relates to Tyrosine-protein kinase ABL1 (Homo sapiens), P00519 [T315I]. Kind of assay: (§1) Selectivity interaction (KinomeScan (DiscoverX)) EUB0000341aCl ABL1. The note with it: at 1 µM.
For assay [8], the system named is Tyrosine-protein kinase ABL1 (Homo sapiens), P00519 [M351T]. Described as §1. The note with it: at 1 µM.
Assay [9] has as its system Tyrosine-protein kinase ABL1 (Homo sapiens), P00519 [F317L]. The assay is described as §1. The note with it: at 1 µM.
The target in assay [10] is Tyrosine-protein kinase receptor TYRO3 (Homo sapiens) (UniProt Q06418). The assay can be described thus: Selectivity interaction (KinomeScan (DiscoverX)) EUB0000300bCl TYRO3. The note with it: at 1 µM.
Tyrosine-protein kinase receptor TYRO3 (Homo sapiens), sequence (Q06418 whole entry): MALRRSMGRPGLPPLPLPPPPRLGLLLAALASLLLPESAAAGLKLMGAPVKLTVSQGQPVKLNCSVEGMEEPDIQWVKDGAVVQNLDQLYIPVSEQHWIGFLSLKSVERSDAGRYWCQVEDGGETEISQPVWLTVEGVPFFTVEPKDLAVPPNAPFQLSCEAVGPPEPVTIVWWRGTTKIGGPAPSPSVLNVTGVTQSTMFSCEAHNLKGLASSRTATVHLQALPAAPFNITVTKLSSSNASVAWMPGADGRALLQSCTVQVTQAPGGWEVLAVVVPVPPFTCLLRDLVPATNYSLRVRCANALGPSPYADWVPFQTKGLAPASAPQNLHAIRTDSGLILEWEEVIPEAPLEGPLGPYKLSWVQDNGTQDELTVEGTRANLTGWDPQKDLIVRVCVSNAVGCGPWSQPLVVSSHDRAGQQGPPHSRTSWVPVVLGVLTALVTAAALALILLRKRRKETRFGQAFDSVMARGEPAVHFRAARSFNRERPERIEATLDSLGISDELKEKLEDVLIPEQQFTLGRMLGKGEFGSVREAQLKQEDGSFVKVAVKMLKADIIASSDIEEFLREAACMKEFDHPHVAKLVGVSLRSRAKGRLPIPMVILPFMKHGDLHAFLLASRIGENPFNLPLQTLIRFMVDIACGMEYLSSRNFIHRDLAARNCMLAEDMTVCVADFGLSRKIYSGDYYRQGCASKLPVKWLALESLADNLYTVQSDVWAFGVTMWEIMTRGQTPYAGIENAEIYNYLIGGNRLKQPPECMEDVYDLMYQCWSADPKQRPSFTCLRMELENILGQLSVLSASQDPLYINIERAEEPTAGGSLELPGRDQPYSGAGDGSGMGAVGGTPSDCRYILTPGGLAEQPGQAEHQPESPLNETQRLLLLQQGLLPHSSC
The target of assay [11] is T2, Alpha-1A adrenergic receptor (Homo sapiens). Kind of assay: (§2) Selectivity interaction (GPCR panel (PDSP screen)) EUB0000300bCl ADRA1A. The note with it: at 10 µM.
Assay [12] deals with Mitogen-activated protein kinase 6 (Homo sapiens) (UniProt Q16659). Kind of assay: Selectivity interaction (KinomeScan (DiscoverX)) EUB0000300bCl MAPK6. The note with it: at 1 µM.
Mitogen-activated protein kinase 6 (Homo sapiens), sequence (Q16659 whole entry): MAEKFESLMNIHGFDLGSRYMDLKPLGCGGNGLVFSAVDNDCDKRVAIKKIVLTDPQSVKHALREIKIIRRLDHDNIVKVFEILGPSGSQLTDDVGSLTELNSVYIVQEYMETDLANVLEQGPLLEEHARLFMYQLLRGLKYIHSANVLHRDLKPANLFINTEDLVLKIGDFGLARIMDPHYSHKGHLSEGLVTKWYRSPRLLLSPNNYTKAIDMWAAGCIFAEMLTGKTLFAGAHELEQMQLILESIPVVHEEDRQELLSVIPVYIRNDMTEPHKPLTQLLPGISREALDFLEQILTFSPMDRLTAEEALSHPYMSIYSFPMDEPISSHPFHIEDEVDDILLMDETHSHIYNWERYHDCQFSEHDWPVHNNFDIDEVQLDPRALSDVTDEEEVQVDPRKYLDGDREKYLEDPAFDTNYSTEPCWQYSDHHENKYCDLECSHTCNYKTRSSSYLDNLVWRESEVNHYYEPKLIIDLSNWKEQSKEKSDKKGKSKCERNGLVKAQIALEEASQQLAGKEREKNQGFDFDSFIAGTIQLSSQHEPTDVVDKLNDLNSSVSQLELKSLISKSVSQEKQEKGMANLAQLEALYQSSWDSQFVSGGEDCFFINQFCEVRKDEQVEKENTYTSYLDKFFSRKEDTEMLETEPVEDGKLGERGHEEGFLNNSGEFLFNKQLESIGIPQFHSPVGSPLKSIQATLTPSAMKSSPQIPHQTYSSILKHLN
In assay [13] the target is T1, Alpha-1B adrenergic receptor. The assay can be described thus: Selectivity interaction (GPCR panel (PDSP screen)) EUB0000300bCl ADRA1B.
Assay [14] addresses T4, Alpha-2B adrenergic receptor (Homo sapiens) (UniProt P18089).
T4 sequence (whole entry): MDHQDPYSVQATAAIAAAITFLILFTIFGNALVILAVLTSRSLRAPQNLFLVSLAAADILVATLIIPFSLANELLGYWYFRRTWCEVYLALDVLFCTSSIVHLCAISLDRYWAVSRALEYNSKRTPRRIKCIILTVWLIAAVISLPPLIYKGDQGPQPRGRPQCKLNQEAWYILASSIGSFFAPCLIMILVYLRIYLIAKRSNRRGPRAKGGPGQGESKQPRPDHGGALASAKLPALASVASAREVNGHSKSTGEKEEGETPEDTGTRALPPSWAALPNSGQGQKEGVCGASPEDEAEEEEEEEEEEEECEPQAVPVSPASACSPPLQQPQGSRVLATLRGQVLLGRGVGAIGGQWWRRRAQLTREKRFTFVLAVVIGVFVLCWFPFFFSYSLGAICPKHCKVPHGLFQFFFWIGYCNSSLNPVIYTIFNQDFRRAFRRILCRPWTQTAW
The assay can be described thus: Selectivity interaction (GPCR panel (PDSP screen)) EUB0000300bCl ADRA2B. The note with it: at 10 µM.

For assay [15], the target named is T3, Alpha-1A adrenergic receptor. The description is as §2.
For assay [16], the target named is T5, Serine/threonine-protein kinase ULK2 (Homo sapiens) (UniProt Q8IYT8).
T5 sequence (whole entry): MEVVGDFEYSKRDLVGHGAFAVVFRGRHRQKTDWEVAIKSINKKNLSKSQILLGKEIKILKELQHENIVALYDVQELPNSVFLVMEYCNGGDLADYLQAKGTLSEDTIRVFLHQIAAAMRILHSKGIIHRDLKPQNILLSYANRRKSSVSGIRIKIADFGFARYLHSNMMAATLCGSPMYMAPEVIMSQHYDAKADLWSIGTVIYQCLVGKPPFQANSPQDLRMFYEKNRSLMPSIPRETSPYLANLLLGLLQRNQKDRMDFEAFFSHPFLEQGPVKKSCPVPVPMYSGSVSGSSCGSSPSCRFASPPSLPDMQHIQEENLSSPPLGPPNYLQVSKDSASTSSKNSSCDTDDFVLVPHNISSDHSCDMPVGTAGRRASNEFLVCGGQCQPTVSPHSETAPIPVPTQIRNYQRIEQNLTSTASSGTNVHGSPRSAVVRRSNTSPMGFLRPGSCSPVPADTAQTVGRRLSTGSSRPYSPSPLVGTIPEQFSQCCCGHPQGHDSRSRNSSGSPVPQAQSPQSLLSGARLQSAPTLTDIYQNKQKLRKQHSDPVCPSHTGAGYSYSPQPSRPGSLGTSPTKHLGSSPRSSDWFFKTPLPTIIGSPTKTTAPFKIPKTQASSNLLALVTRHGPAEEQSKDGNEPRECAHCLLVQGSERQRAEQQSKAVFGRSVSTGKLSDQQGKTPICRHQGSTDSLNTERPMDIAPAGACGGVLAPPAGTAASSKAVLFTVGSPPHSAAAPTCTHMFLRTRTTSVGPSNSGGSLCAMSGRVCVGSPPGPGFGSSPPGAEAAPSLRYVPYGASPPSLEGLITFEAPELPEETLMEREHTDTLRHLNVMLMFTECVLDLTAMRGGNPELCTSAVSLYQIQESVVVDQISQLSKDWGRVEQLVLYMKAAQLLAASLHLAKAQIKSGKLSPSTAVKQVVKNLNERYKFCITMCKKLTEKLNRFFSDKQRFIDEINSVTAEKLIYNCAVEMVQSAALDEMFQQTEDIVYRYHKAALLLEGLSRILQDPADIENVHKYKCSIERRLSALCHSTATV
The assay can be described thus: Selectivity interaction (KinomeScan (DiscoverX)) EUB0000308b ULK2. The note with it: at 1 µM.

In assay [17] the target is Sodium-dependent dopamine transporter (Homo sapiens, UniProt Q01959). Kind of assay: Selectivity interaction (CEREP panel (Eurofins, radioligand binding assay, enzymes, GPCRS, transporters, and ion channels)) EUB0000308b SLC6A3. The note with it: at 10 µM.
Sodium-dependent dopamine transporter, sequence (Q01959 whole entry): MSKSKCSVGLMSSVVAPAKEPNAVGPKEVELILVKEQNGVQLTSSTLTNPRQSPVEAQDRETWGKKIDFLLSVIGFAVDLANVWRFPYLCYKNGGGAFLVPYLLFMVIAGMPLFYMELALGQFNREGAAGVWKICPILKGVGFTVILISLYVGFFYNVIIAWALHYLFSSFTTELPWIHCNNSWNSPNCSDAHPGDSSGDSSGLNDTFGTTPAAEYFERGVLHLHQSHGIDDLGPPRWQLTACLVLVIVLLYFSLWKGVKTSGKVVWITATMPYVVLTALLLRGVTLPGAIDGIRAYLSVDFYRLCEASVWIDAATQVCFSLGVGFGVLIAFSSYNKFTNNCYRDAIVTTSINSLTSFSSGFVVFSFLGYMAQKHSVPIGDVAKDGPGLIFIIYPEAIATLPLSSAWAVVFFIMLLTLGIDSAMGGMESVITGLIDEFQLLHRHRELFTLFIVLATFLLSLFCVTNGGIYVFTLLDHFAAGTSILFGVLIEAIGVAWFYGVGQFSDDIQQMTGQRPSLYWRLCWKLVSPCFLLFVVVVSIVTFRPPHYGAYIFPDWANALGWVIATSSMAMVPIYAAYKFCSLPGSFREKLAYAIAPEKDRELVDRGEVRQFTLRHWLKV
The target of assay [18] is Sigma non-opioid intracellular receptor 1 (Homo sapiens, UniProt Q99720). Kind of assay: Selectivity interaction (GPCR panel (PDSP screen)) EUB0000308b SIGMAR1.
Sigma non-opioid intracellular receptor 1, sequence (Q99720 whole entry): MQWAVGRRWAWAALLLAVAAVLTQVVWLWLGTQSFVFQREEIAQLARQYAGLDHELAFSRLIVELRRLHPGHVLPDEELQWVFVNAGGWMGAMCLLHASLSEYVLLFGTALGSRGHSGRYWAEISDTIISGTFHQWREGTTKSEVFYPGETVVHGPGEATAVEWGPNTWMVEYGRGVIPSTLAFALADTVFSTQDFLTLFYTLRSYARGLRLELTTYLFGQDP
Assay [19] has as its target Sodium-dependent noradrenaline transporter (Homo sapiens, UniProt P23975). The assay can be described thus: Selectivity interaction (CEREP panel (Eurofins, radioligand binding assay, enzymes, GPCRS, transporters, and ion channels)) EUB0000308b SLC6A2. The note with it: at 10 µM.
In assay [20] the target is Melatonin receptor type 1A (Homo sapiens) (UniProt P48039). The assay can be described thus: Selectivity interaction (CEREP panel (Eurofins, radioligand binding assay, enzymes, GPCRS, transporters, and ion channels)) EUB0000308b MTNR1A. The note with it: at 10 µM.
Melatonin receptor type 1A (Homo sapiens), sequence (P48039 whole entry): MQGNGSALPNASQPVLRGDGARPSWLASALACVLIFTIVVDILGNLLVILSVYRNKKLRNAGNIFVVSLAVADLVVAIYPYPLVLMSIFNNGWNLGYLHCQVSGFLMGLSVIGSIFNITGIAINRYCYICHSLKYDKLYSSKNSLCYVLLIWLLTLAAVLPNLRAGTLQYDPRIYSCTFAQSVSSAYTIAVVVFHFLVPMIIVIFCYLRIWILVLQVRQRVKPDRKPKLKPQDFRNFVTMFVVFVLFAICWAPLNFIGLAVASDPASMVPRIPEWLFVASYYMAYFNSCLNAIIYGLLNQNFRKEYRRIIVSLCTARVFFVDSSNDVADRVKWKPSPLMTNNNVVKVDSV
Assay [21] deals with Tyrosine-protein kinase BTK (Homo sapiens, UniProt Q06187). The assay can be described thus: Selectivity interaction (KinomeScan (DiscoverX, competition-binding assay)) EUB0000353a BTK.
The target of assay [22] is Mitogen-activated protein kinase 10 (Homo sapiens, UniProt P53779). The assay can be described thus: Selectivity interaction (KinomeScan (DiscoverX, competition-binding assay)) EUB0000353a MAPK10.
The target in assay [23] is Mitogen-activated protein kinase 8 (Homo sapiens, UniProt P45983). The assay can be described thus: Selectivity interaction (KinomeScan (DiscoverX, competition-binding assay)) EUB0000353a MAPK8.
Mitogen-activated protein kinase 8, sequence (P45983 whole entry): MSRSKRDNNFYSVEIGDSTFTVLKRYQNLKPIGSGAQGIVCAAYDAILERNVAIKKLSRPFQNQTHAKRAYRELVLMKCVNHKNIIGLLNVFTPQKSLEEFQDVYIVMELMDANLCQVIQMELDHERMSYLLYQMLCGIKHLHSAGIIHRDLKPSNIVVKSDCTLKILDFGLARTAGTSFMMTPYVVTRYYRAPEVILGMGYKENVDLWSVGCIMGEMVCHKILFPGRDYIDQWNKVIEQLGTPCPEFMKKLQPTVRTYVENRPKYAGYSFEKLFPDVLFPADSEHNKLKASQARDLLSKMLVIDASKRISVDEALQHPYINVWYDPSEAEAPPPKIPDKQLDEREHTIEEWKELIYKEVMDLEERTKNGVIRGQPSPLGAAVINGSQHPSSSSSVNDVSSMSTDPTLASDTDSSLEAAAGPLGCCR

Sodium-dependent noradrenaline transporter, sequence (P23975 whole entry): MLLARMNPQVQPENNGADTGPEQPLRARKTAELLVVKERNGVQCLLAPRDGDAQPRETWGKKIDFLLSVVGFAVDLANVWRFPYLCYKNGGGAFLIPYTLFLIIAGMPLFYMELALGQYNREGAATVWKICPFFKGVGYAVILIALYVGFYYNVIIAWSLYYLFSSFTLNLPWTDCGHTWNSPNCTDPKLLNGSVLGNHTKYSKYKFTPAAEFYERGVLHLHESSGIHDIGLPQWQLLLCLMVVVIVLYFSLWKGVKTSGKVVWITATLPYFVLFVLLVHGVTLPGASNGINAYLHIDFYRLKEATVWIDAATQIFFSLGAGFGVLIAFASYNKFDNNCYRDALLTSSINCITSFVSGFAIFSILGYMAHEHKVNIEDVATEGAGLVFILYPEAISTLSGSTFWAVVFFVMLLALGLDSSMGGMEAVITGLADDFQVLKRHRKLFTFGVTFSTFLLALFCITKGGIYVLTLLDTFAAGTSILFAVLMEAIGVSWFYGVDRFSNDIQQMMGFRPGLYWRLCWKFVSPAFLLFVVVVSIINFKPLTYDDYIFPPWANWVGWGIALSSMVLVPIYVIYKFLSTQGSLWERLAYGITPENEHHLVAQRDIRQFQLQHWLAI
NT-3 growth factor receptor, sequence (Q16288 32-839 limits assumed): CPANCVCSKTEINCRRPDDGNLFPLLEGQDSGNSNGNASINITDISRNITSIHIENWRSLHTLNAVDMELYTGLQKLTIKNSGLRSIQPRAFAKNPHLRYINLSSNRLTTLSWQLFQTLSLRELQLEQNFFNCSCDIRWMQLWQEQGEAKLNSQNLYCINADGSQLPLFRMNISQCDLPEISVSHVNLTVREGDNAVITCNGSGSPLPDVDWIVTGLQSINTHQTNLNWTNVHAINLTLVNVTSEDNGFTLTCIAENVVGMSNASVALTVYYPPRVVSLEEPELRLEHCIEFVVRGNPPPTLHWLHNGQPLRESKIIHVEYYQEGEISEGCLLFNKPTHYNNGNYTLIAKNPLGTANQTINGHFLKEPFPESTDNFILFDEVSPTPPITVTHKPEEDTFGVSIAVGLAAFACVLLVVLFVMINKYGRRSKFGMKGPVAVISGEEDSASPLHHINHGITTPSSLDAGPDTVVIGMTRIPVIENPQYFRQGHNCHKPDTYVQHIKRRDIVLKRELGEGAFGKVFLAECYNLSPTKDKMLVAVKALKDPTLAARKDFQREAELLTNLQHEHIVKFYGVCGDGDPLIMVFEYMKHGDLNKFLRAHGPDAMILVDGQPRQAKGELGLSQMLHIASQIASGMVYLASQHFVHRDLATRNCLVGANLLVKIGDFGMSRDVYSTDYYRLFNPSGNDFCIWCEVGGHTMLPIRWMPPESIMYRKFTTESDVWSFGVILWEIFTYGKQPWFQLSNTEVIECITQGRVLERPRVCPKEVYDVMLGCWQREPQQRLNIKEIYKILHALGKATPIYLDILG

By IC50 is commonly meant the point on the concentration scale where inhibition reaches its midpoint. A low value points to greater potency. `C[C@@H](c1cccc(C#N)c1)n1cc(Cl)cc(C(N)=O)c1=N`: the % of inhibition in assay [1] is 61%; in assay [5] it was 55%. In addition, the IC50 in assay [2] is 1200 nM; in [6], 2700 nM. Further, the % of control in assay [3] is 0%; in [4], 37%; in assay [7], 0%; in assay [8], 0%; in assay [9], 0%.

Broadly, the Ki is the dissociation constant of the complex between target and ligand, obtained from inhibition or displacement. Turning to `C[C@@H](c1cccc(CN)c1)n1cc(Cl)cc(C(N)=O)c1=N`, the % of control in assay [10] is 33%; in [12], 0%. In addition, the % of inhibition was found to be 84% in assay [11] and 80% in [14]. Also, the Ki in assay [13] was over 1200 nM; in assay [15], over 2700 nM.

For `Clc1cccc(-c2nnnn2Cc2cccnc2)c1Cl`, in [16], the % of control worked out at 46%. Also, the % of inhibition in assay [17] was 43%; in assay [19] it was 32%; in [20], 31%. In assay [18], the Ki came out at 505 nM.

Usually Kd stands for a measure of binding affinity in units of concentration. Consider `CN(C)[C@@H]1CCN(c2cc(-c3ccccc3)nc3ccnn23)C1` [(R)-ZINC-3573], for which the Kd is 27000 nM in assay [21], over 30000 nM in assay [22] and 19000 nM in assay [23].

These data come from ChEMBL document CHEMBL5212743, “Selectivity Literature for EUbOPEN Chemogenomics Library wave 3” (2023).
